Experimental data published in patent US6727244B2, “Mammalian metabolites of a tachykinin receptor antagonist” (Merck & Co., Inc., priority 2000, dated 2004).

Tests used:
Type in all cases: in vitro ADME
[1] = glucuronidation in liver microsomes from rats; details: rat liver microsomes, UDPGA, 37° C. for 60 min
Experimental: (§1) All liver microsomal and cytosolic fractions were prepared using the following procedure. Thawed livers were homogenized with 2 volumes of 50 mM Tris-buffer (pH 7.5) containing 1.15% KCl. For microsomal and cytosolic preparations, the homogenate was centrifuged for 20 min at 9,000×g and the resulting supernatant was centrifuged for 60 min at 105,000×g. The resulting cytosolic fractions were re-centrifuged at 105,000×g for 60 min. Fractions of cytosol were aliquoted into small tubes and stored at −70° C. Subsequently, the microsomal pellets were washed with 10 mM EDTA containing 1.15% KCl and were centrifuged at 105,000×g for 60 min. […] Protein concentrations were determined by a modified Lowry assay (Smith et al., 1985). The specific cytochrome P450 content in each microsomal preparation was measured as described by Omura and Sato, J. Biol. Chem. 239, 2370-2378 (1964).
(§2) The typical reaction mixture (500 μl) containing 10 mM MgCl2, 2% glycerol, 0.02% lubrol PX, 3 mM UDPGA, 1 mg liver microsomes, 50 mM bis-tris propane buffer (pH 8.5) and ˜10 or 25 μM compound (in 15 μl methanol) was incubated at 37° C. for 30-60 min. After incubation, the reactions were terminated by the addition of four volumes of acetonitrile and processed and analyzed by HPLC as mentioned above.

[2] = oxidative metabolism in liver microsomes from rats; details: rat liver microsomes, 15 min incubation
Experimental: All liver microsomal and cytosolic fractions were prepared using the following procedure. Thawed livers were homogenized with 2 volumes of 50 mM Tris-buffer (pH 7.5) containing 1.15% KCl. For microsomal and cytosolic preparations, the homogenate was centrifuged for 20 min at 9,000×g and the resulting supernatant was centrifuged for 60 min at 105,000×g. The resulting cytosolic fractions were re-centrifuged at 105,000×g for 60 min. Fractions of cytosol were aliquoted into small tubes and stored at −70° C. Subsequently, the microsomal pellets were washed with 10 mM EDTA containing 1.15% KCl and were centrifuged at 105,000×g for 60 min. Washed microsomes were resuspended in 10 mM potassium phosphate buffer (pH 7.4) containing 250 mM sucrose, aliquoted into small tubes, and stored at −70° C. Protein concentrations were determined by a modified Lowry assay (Smith et al., 1985). The specific cytochrome P450 content in each microsomal preparation was measured as described by Omura and Sato, J. Biol. Chem. 239, 2370-2378 (1964). […]
Method A was conducted on a Shimadzu HPLC system (Shimadzu Scientific Instruments Inc., Columbia Md.). The parent compounds and their metabolites were monitored directly using a radiometric detector (INUS Systems Inc. Tampa, Fla.) and Ultima-Flow M (Packard Instrument Co., Meridan Conn.) as scintillant at a flow rate of 3 mL/min. […]

[3] = glucuronidation in liver microsomes from humans; details: human liver microsomes, UDPGA, 37° C. for 60 min
Experimental: as §1, §2

conversion to the corresponding glucuronide [1]: ~20%
parent compound remained after incubation [2]: ~50%
conversion to the corresponding glucuronide [3]: ~20%
SMILES: C[C@@H](O[C@H]1OCCN[C@H]1c1ccc(F)cc1)c1cc(C(F)(F)F)cc(C(F)(F)F)c1 [Metabolite M-1, (2R,3S)-2-[(1R)-1-[3,5-bis(trifluoromethyl)phenyl]ethoxy]-3-(4-fluorophenyl)morpholine]
